Patent US20110217324A1, “INHIBITORS OF ANTIGEN PRESENTATION BY MHC CLASS II MOLECULES AND METHODS OF USE THEREOF” (priority 2007, published 2011)
Numbered stars: 1 amine (or outer) side, 2 acyl side, 3 side chain; on linkers, the order of the positions; unused ones are H or OH. Square brackets hold non-standard residues; d marks the D form. Peptide text beside a SMILES is read from it. * marks the point of attachment. X8 = Nc1nc(C[C@H](N[*:1])C(=O)[*:2])c[nH]1; Gly(cPent) = N[C@H](C(=O)O)C1CCCC1; Lys(Me2) = CN(C)CCCC[C@H](N)C(=O)O; Tic = O=C(O)[C@@H]1Cc2ccccc2CN1; Cit = NC(=O)NCCC[C@H](N)C(=O)O; Chg = N[C@H](C(=O)O)C1CCCCC1; NHPhenethyl = c1ccc(CCN*)cc1; Tle = CC(C)(C)[C@H](N)C(=O)O; Pip = O=C(O)[C@@H]1CCCCN1; Nva = CCC[C@H](N)C(=O)O; βAla = NCCC(=O)O; Sar = CNCC(=O)O

Key:
T cell proliferation = conditions: cited from earlier work
[1] = tested on: animal models of autoimmune disease; conditions: in vivo; cited from earlier work
DR molecules = conditions: cited from earlier work
DRB1*1501 = DRB1*1501 (Homo sapiens, UniProt P01903+P01911); conditions: DR2 haplotype; cited from earlier work
DRB5*0101 = DRB5*0101 (Homo sapiens, UniProt P01903+Q30154); conditions: DR2 haplotype; cited from earlier work
[2] = biological target: T1, MHC DR2 (DRB1*1501/DRA*0101) (Homo sapiens, UniProt P01903+P01911); assay: HLA II Binding Assay (competition with biotinylated reference peptide); conditions: purified HLA-DR, biotinylated reference compound for DRB1*1501, 37° C. 24 h to 72 h; read-out: Inhibition of peptide binding IC50 (against MHC DR2 (DRB1*1501/DRA*0101))
T1 construct: endogenous in cells; host or cells: EBV homozygous (B lymphoblastoid) cell lines
Description: EBV homozygous cell lines are used as sources of human HLA class II molecules. […] The supernatant from lysed cells after centrifugation (100,000 g for 1 h) is applied to Sepharose 4B and protein A-Sepharose 4B columns and then to the specific antibody column. […] Fractions are immediately neutralized to pH 7 with 2 mM Tris-HCl (pH 6.8) and extensively dialyzed against 1 mM n-dodecyl β-D-maltoside, 150 mM NaCl, 10 mM phosphate (pH 7) buffer.
Samples (100 μl per well) are incubated in 96-wells polypropylene plates at 37° C. for 24 h to 72 h. After neutralization with 50 μl of 450 mM Tris HCl pH 7.5, 0.003% thimerosal, 0.3% BSA, 1 mM n-dodecyl β-D-maltoside buffer, samples are applied to 96-well maxisorp ELISA plates previously coated with 10 μg/ml L243 Mab and saturated with 100 mM Tris HCl pH=7.5, 0.3% BSA, and 0.003% thimerosal buffer. Samples are allowed to bind to the antibody-coated plates for 2 h at room temperature. Bound biotinylated compound is detected by incubating streptavidin-alkaline phosphatase conjugate, and after washings, by the addition of 4-methylumbelliferyl phosphate substrate. […] Maximal binding is determined by incubating the biotinylated peptide with the MHC class II molecule in the absence of competitor. Binding specificity is assessed by adding an excess of non-biotinylated peptide.

Molecule	IC50 [2]	further results
a(Cha)AAAKTAAAAa-NH2		suppression of T cell proliferation in response to protein antigens (T cell proliferation): did not supress T cell proliferation; activity in animal models of autoimmune disease [1]: did not show activity; binding to DR molecules (DR molecules): binds DR molecules
MBP (84-102): immunodominant myelin basic protein (84-102) peptide (DPGSRPHLIRLFSRDAPGR; Myelin basic protein; UniProt P02686 84-102, looked up, fragment)		binding affinity to DRB1*1501 molecules (DRB1*1501): bind with high affinity; binding affinity to DRB5*0101 molecules (DRB5*0101): bind with high affinity
CCC[C@H](NC(C)=O)C(=O)N[C@H](C(=O)N[C@@H](CCCNC(=N)N)C(=O)N1Cc2ccccc2C[C@H]1C(=O)N[C@@H](Cc1ccccc1)C(N)=O)C1CCCCC1 [Ac(nor-V)(Chg)R(Tic)F] (Ac-[Nva][Chg]R[Tic]F-NH2)	1 to 10 nM	
CC(C)[C@H](NC(=O)CN)C(=O)N[C@H](C(=O)N[C@@H](CCCNC(=N)N)C(=O)N1Cc2ccccc2C[C@H]1C(=O)N[C@@H](Cc1ccccc1)C(N)=O)C1CCCCC1 [(NH2-Gly)V(Chg)R(Tic)F] (H-GV[Chg]R[Tic]F-NH2)	1 to 10 nM	
CC(=O)N[C@H](C(=O)N[C@H](C(=O)N[C@@H](C)C(=O)N1Cc2ccccc2C[C@H]1C(=O)N[C@@H](Cc1ccccc1)C(N)=O)C1CCCCC1)C(C)C [AcV(Chg)A(Tic)F] (Ac-V[Chg]A[Tic]F-NH2)	10 to 100 nM	
CC(=O)N[C@H](C(=O)N[C@H](C(=O)N[C@@H](Cc1c[nH]cn1)C(=O)N1Cc2ccccc2C[C@H]1C(=O)N[C@@H](Cc1ccccc1)C(N)=O)C1CCCCC1)C(C)C [AcV(Chg)H(Tic)F] (Ac-V[Chg]H[Tic]F-NH2)	10 to 100 nM	
CC(C)[C@H](NC(=O)CCN)C(=O)N[C@H](C(=O)N[C@@H](CCCNC(N)=O)C(=O)N1Cc2ccccc2C[C@H]1C(=O)N[C@@H](Cc1ccccc1)C(N)=O)C1CCCCC1 [(NH2-Beta Ala)V(Chg)(Cit)(Tic)F] (H-[βAla]V[Chg][Cit][Tic]F-NH2)	1 to 10 nM	
CC(=O)N[C@H](C(=O)N[C@@H](CCCCN(C)C)C(=O)N1Cc2ccccc2C[C@H]1C(=O)N[C@@H](Cc1ccccc1)C(=O)N1CCCC[C@H]1C(N)=O)C1CCCC1 [Ac(Cpg)(diMeK)(Tic)F(homo Pro)] (Ac-[Gly(cPent)][Lys(Me2)][Tic]F[Pip]-NH2)	10 to 100 nM	
CC(=O)N[C@H](C(=O)N[C@H](C(=O)N[C@@H](CCCNC(=N)N)C(=O)N1Cc2ccccc2C[C@H]1C(=O)NCCc1ccccc1)C1CCCCC1)C(C)C [AcV(Chg)R(Tic)(phenethylamide)] (Ac-V[Chg]R[Tic]-NHPhenethyl)	100 to 1000 nM	
CC(C)[C@H](NC(=O)CN)C(=O)N[C@H](C(=O)N[C@@H](CCCNC(N)=O)C(=O)N1Cc2ccccc2C[C@H]1C(=O)N[C@@H](Cc1ccccc1)C(N)=O)C1CCCCC1 [(NH2-Gly)V(Chg)(Cit)(Tic)F] (H-GV[Chg][Cit][Tic]F-NH2)	1 to 10 nM	
CC(=O)N[C@H](C(=O)N[C@H](C(=O)N[C@@H](CCCNC(=N)N)C(=O)N1Cc2ccccc2C[C@H]1C(=O)N[C@@H](Cc1c[nH]c2ccccc12)C(N)=O)C1CCCCC1)C(C)C [AcV(Chg)R(Tic)(Trp)] (Ac-V[Chg]R[Tic]W-NH2)	1 to 10 nM	
CC(=O)N[C@H](C(=O)N[C@@H](CCCNC(=N)N)C(=O)N1CCCC[C@H]1C(=O)N[C@@H](Cc1ccccc1)C(=O)N1CCCC[C@H]1C(N)=O)C1CCCCC1 [Ac(Chg)R(homo Pro)F(homo Pro)] (Ac-[Chg]R[Pip]F[Pip]-NH2)	100 to 1000 nM	
CC(=O)N[C@H](C(=O)N[C@H](C(=O)N[C@@H](CCCNC(N)=O)C(=O)N1Cc2ccccc2C[C@H]1C(=O)N[C@@H](Cc1ccccc1)C(N)=O)C1CCCCC1)C(C)C [AcV(Chg)(Cit)(Tic)F] (Ac-V[Chg][Cit][Tic]F-NH2)	1 to 10 nM	
CC(=O)N[C@H](C(=O)N[C@H](C(=O)N[C@@H](Cc1c[nH]c(N)n1)C(=O)N1Cc2ccccc2C[C@H]1C(=O)N[C@@H](Cc1ccccc1)C(N)=O)C1CCCCC1)C(C)C [AcV(Chg)(2-amino His)(Tic)F] (Ac-V[Chg][X8][Tic]F-NH2)	10 to 100 nM	
CC(=O)N[C@H](C(=O)N[C@H](C(=O)N[C@@H](CCCNC(=N)N)C(=O)N1Cc2ccccc2C[C@H]1C(=O)N[C@@H](Cc1ccccc1)C(N)=O)C1CCCCC1)C(C)(C)C [Ac(t-BuG)(Chg)R(Tic)F] (Ac-[Tle][Chg]R[Tic]F-NH2)	1 to 10 nM	
CNCC(=O)N[C@H](C(=O)N[C@H](C(=O)N[C@@H](CCCNC(N)=O)C(=O)N1Cc2ccccc2C[C@H]1C(=O)N[C@@H](Cc1ccccc1)C(N)=O)C1CCCCC1)C(C)C [(NH2-Sar)V(Chg)(Cit)(Tic)F] (H-[Sar]V[Chg][Cit][Tic]F-NH2)	1 to 10 nM	
